What was measured:
NCI-H716 cells = assay: GLP-1 release into culture medium of NCI-H716 cells; assay type: cell-based; conditions: 50 μM, FIG. 5
Experimental: NCI-H716 cells were cultured and treated with 50 μM hyocholic acid and hyocholic acid derivatives, and a reported TGR5 agonist INT-777, and the levels of GLP-1 in the cell culture medium were measured.

NCI-H716 and STC-1 cells = assay: GLP-1 expression in enteroendocrine cell lines after 48 h bile acid treatment; assay type: cell-based; conditions: 50 μM, through the action of TGR5 and FXR, FIG. 6
Experimental: NCI-H716 and STC-1 cells were treated with 50 μM hyocholic acid, hyodeoxycholic acid, taurohyodeoxycholic acid, glycohyodeoxycholic acid, taurohyocholic acid, glycohyocholic acid and 19 kinds of other bile acids for 48 hours. […] (a) GLP-1 transcription was measured using real-time PCR, see FIG. 6A. (b) GLP-1 secretion was measured using ELISA, see FIG. 6B. (c) NCI-H716 and STC-1 and TGR5 knockdown cells thereof were treated with 6 kinds of hyocholic acids for 24 h and intracellular GLP-1, p-CREB and total CREB were measured using western blotting. (d) FXR protein concentration in nuclear and cytoplasmic fractions ofNCI-H716 cells after 24 h treatment with 50 μM chenodeoxycholic acid or 5-cholic acid in the presence and absence of hyocholic acid. See FIG. 6E. * P<0.05, compared with the control.

[1] = test system: fat-induced obesity mouse model; assay: High-fat diet induced obesity mouse model, triglyceride after 8 weeks of gavage; assay type: in vivo, mice; conditions: for triglyceride levels versus simple high-fat diet group: 50 mg/kg/day by gavage with high-fat diet for 8 weeks; for liver triglyceride / serum triglyceride: after 8 weeks of intervention; for liver triglyceride: FIG. 2; for serum triglyceride: FIG. 3
Experimental: In the fat-induced obesity mouse model, hyocholic acid and hyodeoxycholic acid were administered by gavage at a dose of 50 mg/kg/day while feeding high-fat diet (HFD) for 8 weeks. […] The increase of hyocholic acid and hyodeoxycholic acid in mice can effectively improve the dyslipidemia in mice caused by high fat.

SMILES | release of GLP-1 (level in cell culture medium) (NCI-H716 cells) | upregulating GLP-1 protein expression in enteroendocrine cell lines (NCI-H716 and STC-1 cells) | triglyceride levels versus simple high-fat diet group [1] | liver triglyceride [1] | serum triglyceride [1]
CC[C@H]1[C@@H](O)[C@@H]2[C@H](C[C@H](O)[C@]3(C)[C@@H]([C@H](C)C[C@H](C)C(=O)O)CC[C@@H]23)[C@@]2(C)CC[C@@H](O)C[C@@H]12 [INT-777] | effectively promote the release of GLP-1 |  |  |  | 
C[C@H](C[C@H](C)C(=O)O)[C@H]1CCC2C3C(CC[C@@]21C)[C@@]1(C)CC[C@@H](O)CC1[C@@H](O)[C@H]3O (stereo partly drawn) [ZN-1-102-1, (S)-23-methyl hyocholic acid] | superior to hyocholic acid and the existing TGR5 agonist INT-777 |  |  |  | 
C[C@H](CCC(=O)NCC(=O)O)[C@H]1CC[C@H]2[C@@H]3[C@H](O)[C@H](O)[C@@H]4C[C@H](O)CC[C@]4(C)[C@H]3CC[C@]12C [glycohyocholic acid] |  | more effective than other bile acids |  |  | 
CC(CCC(=O)NCC(=O)O)C1CCC2C3CC(O)C4CC(O)CCC4(C)C3CCC12C (stereo not drawn) [glycohyodeoxycholic acid] |  | more effective than other bile acids |  |  | 
C[C@H](CCC(=O)O)[C@H]1CC[C@H]2[C@@H]3[C@H](O)[C@H](O)[C@@H]4C[C@H](O)CC[C@]4(C)[C@H]3CC[C@]12C [hyocholic acid] | effectively promote the release of GLP-1 | more effective than other bile acids | significantly lower | significant decrease | significant decrease
C[C@H](CCC(=O)O)[C@H]1CC[C@H]2[C@@H]3C[C@H](O)[C@@H]4C[C@H](O)CC[C@]4(C)[C@H]3CC[C@]12C [hyodeoxycholic acid] |  | more effective than other bile acids | significantly lower | significant decrease | significant decrease
C[C@H](CCC(=O)NCCS(=O)(=O)O)[C@H]1CC[C@H]2[C@@H]3[C@H](O)[C@H](O)[C@@H]4C[C@H](O)CC[C@]4(C)[C@H]3CC[C@]12C.[Na] [taurohyocholic acid] |  | more effective than other bile acids |  |  | 
C[C@H](CCC(=O)NCCS(=O)(=O)[O-])[C@H]1CC[C@H]2[C@@H]3C[C@H](O)[C@@H]4C[C@H](O)CC[C@]4(C)[C@H]3CC[C@]12C.[Na+] [taurohyodeoxycholic acid] |  | more effective than other bile acids |  |  | 
